Reference: patent US20240251788A1, “HERBICIDE/SAFENER COMBINATION BASED ON SAFENERS FROM THE CLASS OF SUBSTITUTED [(1,5-DIPHENYL-1H-1,2,4-TRIAZOL-3-YL)OXY]ACETIC ACIDS AND THEIR SALTS” (Bayer Aktiengesellschaft, priority 2021, published 2024)

What was measured:
[1] = test system: summer wheat crop plant (TRZAS; cv. Triso); experiment: Reduction in herbicide damage to summer wheat by safener, greenhouse post-emergence application, visual scoring; format: in vivo; settings: summer wheat (TRZAS), without safener
Description: (§1) The seeds of the crop plants to be treated are laid out in soil in woodfiber pots (diameter ˜ 7 cm), covered with soil and grown in a greenhouse under good conditions for germination and growth. The trial plants were treated at the early leaf stage (BBCH10-BBCH12).
The herbicides used (component B) were used in the following formulations: • B2.81: WP • B2.85: WP • B2.92: WP • Cinmethylin: EC • Clomazone: WP • Ethofumesate: WP • Flufenacet: SC • Pinoxaden: WP • Saflufenacil: WP • Bicyclopyrone: WP • Picloram: WP • Metazachlor: SC • Flumioxazin: WP • Glyphosate potassium salt: SL • Topramezone: WP
(§2) The dose of the respective herbicides was chosen here such that it causes an average degree of visually apparent damage (min. 20%, max. 75%) compared to untreated crop plants at the evaluation time on a control group of crop plants without safener treatment that were included in the same trial.
(§3) In the respective herbicide/safener combinations, the safeners (component A) in the form of wettable powders (WP) were added in the dose specified; in these cases, herbicide and safener are thus applied as a mixture.
(§4) Application was effected in each case on to the above-ground parts of the plant, at a water application rate corresponding to 300 l/ha and with addition of wetting agent (Mero, 1.5 l/h a).
In the applications that contained pinoxaden, bicyclopyrone or topramezone, the herbicidal effect was enhanced by additionally adding ammonium sulfate (2 kg/ha).
(§5) After application, the plants were cultivated under good growth conditions in a greenhouse. On account of the different mechanisms of action of the herbicides used, the damaging effect of the herbicides was fully manifested at different times depending on the herbicide, and this in turn forms the basis for assessment of the safener action in the mixtures. Therefore, the damage was scored visually, depending on the herbicide/mixture, between 11 and 21 days after application.
(§6) The damage effect was assessed visually on a scale of 0-100% by comparison with untreated control plants, and averaged over 2 repeats per treatment.

[2] = test system: summer barley crop plant (HORVS: cv. Quench); experiment: Reduction in herbicide damage to summer barley by safener, greenhouse post-emergence application, visual scoring; format: in vivo
Description: as §1
The herbicides used (component B) were used in the following formulations: • B2.81: WP • B2.85: WP • B2.92: WP • Clomazone: WP • Ethofumesate: WP • Flufenacet: SC • Fluroxypyr: EC • Saflufenacil: WP • Thiencarbazone-methyl: WP • Iodosulfuron-methyl-sodium: WP • Bifenox: WP • Glyphosate potassium salt: SL • Topramezone: WP
as §2, §3, §4
In the applications that contained pinoxaden or topramezone, the herbicidal effect was enhanced by additionally adding ammonium sulfate (2 kg/ha).
as §5, §6

Nc1c(Cl)c(Cl)nc(C(=O)O)c1Cl [Compound B6.5, picloram, reference compound]
Damage to the plant by the herbicide (in %) ([1]; herbicide dose 400 g a.i./ha): 25%

Cc1ccccc1CO[C@@H]1C[C@@]2(C(C)C)CC[C@]1(C)O2 (racemic) [Compound B5.13, cinmethylin, reference compound]
Damage to the plant by the herbicide (in %) ([1]; herbicide dose 500 g a.i./ha): 25% | Damage to the plant by the herbicide (in %) ([1]; herbicide dose 1000 g a.i./ha): 25%

Nc1c(Cl)c(F)nc(OCC(=O)O)c1Cl [Compound B6.4, fluroxypyr, reference compound]
Damage to the plant by the herbicide (in %) ([2]; in vivo): 20%

COc1nn(C(=O)NS(=O)(=O)c2c(C(=O)O)csc2C)c(=O)n1C [Compound B2.68, thiencarbazone, reference compound]
Damage to the plant by the herbicide (in %) ([2]; summer barley (HORVS), herbicide dose 30 g a.i./ha, without safener): 30%

COc1nc(C)nc(NC(=O)NS(=O)(=O)c2cc(I)ccc2C(=O)O)n1 [Compound B2.34, iodosulfuron, reference compound]
Damage to the plant by the herbicide (in %) ([2]; in vivo): 45%

C#CCN1C(=O)COc2cc(F)c(N3C(=O)C4=C(CCCC4)C3=O)cc21 [Compound B5.26, flumioxazin, reference compound]
Damage to the plant by the herbicide (in %) ([1]; herbicide dose 20 g a.i./ha): 60%

CCc1cc(C)cc(CC)c1-c1c(OC(=O)C(C)(C)C)n2n(c1=O)CCOCC2 [Compound B1.8, pinoxaden, reference compound]
Damage to the plant by the herbicide (in %) ([1]; herbicide dose 200 g a.i./ha): 35%

COC(=O)c1cc(Oc2ccc(Cl)cc2Cl)ccc1[N+](=O)[O-] [Compound B8.6, bifenox, reference compound]
Damage to the plant by the herbicide (in %) ([2]; summer barley (HORVS), herbicide dose 600 g a.i./ha, without safener): 40%

bicyclopyrone [Compound B1.2, reference compound]
Damage to the plant by the herbicide (in %) ([1]; herbicide dose 400 g a.i./ha): 60%

Cc1cccc(C)c1N(Cn1cccn1)C(=O)CCl [Compound B2.38, metazachlor, reference compound]
Damage to the plant by the herbicide (in %) ([1]; herbicide dose 4000 g a.i./ha): 40%
